Results published in patent US12077503B2, “Substituted cyclic amides and their use as herbicides” (FMC CORPORATION, priority 2015, dated 2024).

What was measured:
Format in all cases: in vivo
[1] = system: barnyardgrass (Echinochloa crus-galli); assay: Test G Pre-Emergence Protocol; conditions: Echinochloa crus-galli, pre-emergence, 312 h, evaluated after 13 days; for pest or weed control at 15.625 g/ha: 15.625 g ai/ha; for pest or weed control at 15.625 g/ha / pest or weed control at 250 g/ha: read-out: Barnyardgrass damage rating (100=total damage to plant; 0=no damage to plant); for pest or weed control at 62.5 g/ha: 62.5 g ai/ha, 100=total damage to plant, 0=no damage to plant, read-out: Barnyardgrass damage rating; for pest or weed control at 250 g/ha: 250 g ai/ha
Method in brief: (§1)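 Glasshouse pre-emergence test: soil-sown seeds, sprayed after 1 d at 15.625, 62.5 or 250 g/ha. Conditions 24/16° C day/night, 14 h light, 65% humidity, watering twice daily. Rating 13 d post-spray (100 = total damage).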

corn (Zea mays) [2] = assay: Test G Pre-Emergence Protocol; conditions: Zea mays, pre-emergence, 312 h, evaluated after 13 days; for plant injury at 15.625 g/ha: 15.625 g ai/ha; for plant injury at 15.625 g/ha / plant injury at 250 g/ha: read-out: Corn damage rating (100=total damage to plant; 0=no damage to plant); for plant injury at 62.5 g/ha: 62.5 g ai/ha, 100=total damage to plant, 0=no damage to plant, read-out: Corn damage rating; for plant injury at 250 g/ha: 250 g ai/ha
Method in brief: as §1

[3] = system: giant foxtail (Setaria faberi); assay: Test G Pre-Emergence Protocol; conditions: Setaria faberi, pre-emergence, 312 h, evaluated after 13 days; for pest or weed control at 15.625 g/ha: 15.625 g ai/ha; for pest or weed control at 15.625 g/ha / pest or weed control at 250 g/ha: read-out: Foxtail, Giant damage rating (100=total damage to plant; 0=no damage to plant); for pest or weed control at 62.5 g/ha: 62.5 g ai/ha, 100=total damage to plant, 0=no damage to plant, read-out: Foxtail, Giant damage rating; for pest or weed control at 250 g/ha: 250 g ai/ha
Method in brief: as §1

[4] = system: ivy-leaved morning glory (Ipomoea hederacea); assay: Test G Pre-Emergence Protocol; conditions: Ipomoea, pre-emergence, 312 h, evaluated after 13 days; for pest or weed control at 15.625 g/ha: 15.625 g ai/ha; for pest or weed control at 15.625 g/ha / pest or weed control at 250 g/ha: read-out: Morningglory, Ivy-leaved damage rating (100=total damage to plant; 0=no damage to plant); for pest or weed control at 62.5 g/ha: 62.5 g ai/ha, 100=total damage to plant, 0=no damage to plant, read-out: Morningglory, Ivy-leaved damage rating; for pest or weed control at 250 g/ha: 250 g ai/ha
Method in brief: as §1

[5] = system: redroot pigweed (Amaranthus retroflexus); assay: Test G Pre-Emergence Protocol; conditions: Amaranthus retroflexus, pre-emergence, 312 h, evaluated after 13 days; for pest or weed control at 15.625 g/ha: 15.625 g ai/ha; for pest or weed control at 15.625 g/ha / pest or weed control at 250 g/ha: read-out: Pigweed, Redroot damage rating (100=total damage to plant; 0=no damage to plant); for pest or weed control at 62.5 g/ha: 62.5 g ai/ha, 100=total damage to plant, 0=no damage to plant, read-out: Pigweed, Redroot damage rating; for pest or weed control at 250 g/ha: 250 g ai/ha
Method in brief: as §1

[6] = system: velvetleaf (Abutilon theophrasti); assay: Test G Pre-Emergence Protocol; conditions: Abutilon theophrasti, pre-emergence, 312 h, evaluated after 13 days; for pest or weed control at 15.625 g/ha: 15.625 g ai/ha; for pest or weed control at 15.625 g/ha / pest or weed control at 250 g/ha: read-out: Velvetleaf damage rating (100=total damage to plant; 0=no damage to plant); for pest or weed control at 62.5 g/ha: 62.5 g ai/ha, 100=total damage to plant, 0=no damage to plant, read-out: Velvetleaf damage rating; for pest or weed control at 250 g/ha: 250 g ai/ha
Method in brief: as §1

[7] = system: barnyardgrass (Echinochloa crus-galli); assay: Test G Post-Emergence Protocol; conditions: Echinochloa crus-galli, post-emergence, 312 h, read-out: Barnyardgrass damage rating; for pest or weed control at 15.625 g/ha: 15.625 g ai/ha, evaluated after 13 days (100=total damage to plant; 0=no damage to plant); for pest or weed control at 62.5 g/ha: 62.5 g ai/ha; for pest or weed control at 62.5 g/ha / pest or weed control at 250 g/ha: evaluated after 13 days, 100=total damage to plant, 0=no damage to plant; for pest or weed control at 250 g/ha: 250 g ai/ha
Method in brief: (§2)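 Eight days post-sowing, plants received a spray of test compound (acetone/water 50:50, 0.5% Tween 20) at 15.625, 62.5 or 250 g/ha. Glasshouse regime thereafter: 24/16 °C, 14 h light, 65% humidity. Assessment after 13 days on a 0–100 damage scale.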

corn (Zea mays) [8] = assay: Test G Post-Emergence Protocol; conditions: Zea mays, post-emergence, 312 h, read-out: Corn damage rating; for plant injury at 15.625 g/ha: 15.625 g ai/ha, evaluated after 13 days (100=total damage to plant; 0=no damage to plant); for plant injury at 62.5 g/ha: 62.5 g ai/ha; for plant injury at 62.5 g/ha / plant injury at 250 g/ha: evaluated after 13 days, 100=total damage to plant, 0=no damage to plant; for plant injury at 250 g/ha: 250 g ai/ha
Method in brief: as §2

[9] = system: giant foxtail (Setaria faberi); assay: Test G Post-Emergence Protocol; conditions: Setaria faberi, post-emergence, 312 h, read-out: Foxtail, Giant damage rating; for pest or weed control at 15.625 g/ha: 15.625 g ai/ha, evaluated after 13 days (100=total damage to plant; 0=no damage to plant); for pest or weed control at 62.5 g/ha: 62.5 g ai/ha, evaluated after 13 days, 100=total damage to plant, 0=no damage to plant
Method in brief: as §2

[10] = system: ivy-leaved morning glory (Ipomoea hederacea); assay: Test G Post-Emergence Protocol; conditions: Ipomoea, post-emergence, 312 h, read-out: Morningglory, Ivy-leaved damage rating; for pest or weed control at 15.625 g/ha: 15.625 g ai/ha, evaluated after 13 days (100=total damage to plant; 0=no damage to plant); for pest or weed control at 62.5 g/ha: 62.5 g ai/ha; for pest or weed control at 62.5 g/ha / pest or weed control at 250 g/ha: evaluated after 13 days, 100=total damage to plant, 0=no damage to plant; for pest or weed control at 250 g/ha: 250 g ai/ha
Method in brief: as §2

[11] = system: redroot pigweed (Amaranthus retroflexus); assay: Test G Post-Emergence Protocol; conditions: Amaranthus retroflexus, post-emergence, 312 h, read-out: Pigweed, Redroot damage rating; for pest or weed control at 15.625 g/ha: 15.625 g ai/ha, evaluated after 13 days (100=total damage to plant; 0=no damage to plant); for pest or weed control at 62.5 g/ha: 62.5 g ai/ha; for pest or weed control at 62.5 g/ha / pest or weed control at 250 g/ha: evaluated after 13 days, 100=total damage to plant, 0=no damage to plant; for pest or weed control at 250 g/ha: 250 g ai/ha
Method in brief: as §2

[12] = system: velvetleaf (Abutilon theophrasti); assay: Test G Post-Emergence Protocol; conditions: Abutilon theophrasti, post-emergence, 312 h, read-out: Velvetleaf damage rating; for pest or weed control at 15.625 g/ha: 15.625 g ai/ha, evaluated after 13 days (100=total damage to plant; 0=no damage to plant); for pest or weed control at 62.5 g/ha: 62.5 g ai/ha; for pest or weed control at 62.5 g/ha / pest or weed control at 250 g/ha: evaluated after 13 days, 100=total damage to plant, 0=no damage to plant; for pest or weed control at 250 g/ha: 250 g ai/ha
Method in brief: as §2

| SMILES | pest or weed control at 15.625 g/ha [1] [%] | pest or weed control at 62.5 g/ha [1] [%] | pest or weed control at 250 g/ha [1] [%] | plant injury at 15.625 g/ha (corn (Zea mays) [2]) [%] | plant injury at 62.5 g/ha (corn (Zea mays) [2]) [%] | plant injury at 250 g/ha (corn (Zea mays) [2]) [%] | pest or weed control at 15.625 g/ha [3] [%] | pest or weed control at 62.5 g/ha [3] [%] | pest or weed control at 250 g/ha [3] [%] | pest or weed control at 15.625 g/ha [4] [%] | pest or weed control at 62.5 g/ha [4] [%] | pest or weed control at 250 g/ha [4] [%] | pest or weed control at 15.625 g/ha [5] [%] | pest or weed control at 62.5 g/ha [5] [%] | pest or weed control at 250 g/ha [5] [%] | pest or weed control at 15.625 g/ha [6] [%] | pest or weed control at 62.5 g/ha [6] [%] | pest or weed control at 250 g/ha [6] [%] | pest or weed control at 15.625 g/ha [7] [%] | pest or weed control at 62.5 g/ha [7] [%] | also measured |
| --- | --- | --- | --- | --- | --- | --- | --- | --- | --- | --- | --- | --- | --- | --- | --- | --- | --- | --- | --- | --- | --- |
| CCOc1cc([C@@H]2CN(C)C(=O)[C@H]2C(=O)Nc2cccc(F)c2C)ccc1C(F)(F)F (racemic) [Compound 1787] | 50 | 60 | 90 | 20 | 20 | 40 | 60 | 70 | 90 | 0 | 0 | 20 | 0 | 0 | 20 | 0 | 10 | 20 | 20 | 60 | pest or weed control at 250 g/ha [7]: 60%; plant injury at 15.625 g/ha (corn (Zea mays) [8]): 30%; plant injury at 62.5 g/ha (corn (Zea mays) [8]): 50%; plant injury at 250 g/ha (corn (Zea mays) [8]): 60%; pest or weed control at 15.625 g/ha [9]: 40%; pest or weed control at 62.5 g/ha [9]: 70%; pest or weed control at 15.625 g/ha [10]: 50%; pest or weed control at 62.5 g/ha [10]: 70%; pest or weed control at 250 g/ha [10]: 70%; pest or weed control at 15.625 g/ha [11]: 20%; pest or weed control at 62.5 g/ha [11]: 20%; pest or weed control at 250 g/ha [11]: 70%; pest or weed control at 15.625 g/ha [12]: 20%; pest or weed control at 62.5 g/ha [12]: 20%; pest or weed control at 250 g/ha [12]: 40% |
| CN1C[C@H](c2ccc(C(F)(F)F)cc2)[C@@H](C(=O)Nc2cccnc2S(C)(=O)=O)C1=O (racemic) [Compound 1789] | 0 | 0 | 0 | 0 | 0 | 10 | 0 | 0 | 0 | 0 | 0 | 0 | 0 | 0 | 20 | 0 | 0 | 20 | 0 | 0 | pest or weed control at 250 g/ha [7]: 0%; plant injury at 15.625 g/ha (corn (Zea mays) [8]): 0%; plant injury at 62.5 g/ha (corn (Zea mays) [8]): 0%; plant injury at 250 g/ha (corn (Zea mays) [8]): 10%; pest or weed control at 15.625 g/ha [9]: 0%; pest or weed control at 62.5 g/ha [9]: 0%; pest or weed control at 15.625 g/ha [10]: 0%; pest or weed control at 62.5 g/ha [10]: 0%; pest or weed control at 250 g/ha [10]: 0%; pest or weed control at 15.625 g/ha [11]: 0%; pest or weed control at 62.5 g/ha [11]: 0%; pest or weed control at 250 g/ha [11]: 20%; pest or weed control at 15.625 g/ha [12]: 0%; pest or weed control at 62.5 g/ha [12]: 0%; pest or weed control at 250 g/ha [12]: 20% |
